Source: US20050238777A1, “Condensed palatinose and method for producing the same” (priority 2002, published 2005)

Key:
[1] = target: T1, saccharase/isomaltase enzyme complex (SI complex) (Sus scrofa, UniProt P56729); assay: Stability with respect to intestinal α-glucosidases: saccharase/isomaltase; type: in vitro ADME, pig; settings: 1% solution, pH 7.0, 0.7 U enzyme complex, 37° C., incubation time 120 min
T1 construct: are isolated from a pig intestine by the method of H. Heymann; from tissue; host or cells: pig intestine (mucosa of the small intestine)
T1 sequence (P56729 with tags, fused parts or gaps): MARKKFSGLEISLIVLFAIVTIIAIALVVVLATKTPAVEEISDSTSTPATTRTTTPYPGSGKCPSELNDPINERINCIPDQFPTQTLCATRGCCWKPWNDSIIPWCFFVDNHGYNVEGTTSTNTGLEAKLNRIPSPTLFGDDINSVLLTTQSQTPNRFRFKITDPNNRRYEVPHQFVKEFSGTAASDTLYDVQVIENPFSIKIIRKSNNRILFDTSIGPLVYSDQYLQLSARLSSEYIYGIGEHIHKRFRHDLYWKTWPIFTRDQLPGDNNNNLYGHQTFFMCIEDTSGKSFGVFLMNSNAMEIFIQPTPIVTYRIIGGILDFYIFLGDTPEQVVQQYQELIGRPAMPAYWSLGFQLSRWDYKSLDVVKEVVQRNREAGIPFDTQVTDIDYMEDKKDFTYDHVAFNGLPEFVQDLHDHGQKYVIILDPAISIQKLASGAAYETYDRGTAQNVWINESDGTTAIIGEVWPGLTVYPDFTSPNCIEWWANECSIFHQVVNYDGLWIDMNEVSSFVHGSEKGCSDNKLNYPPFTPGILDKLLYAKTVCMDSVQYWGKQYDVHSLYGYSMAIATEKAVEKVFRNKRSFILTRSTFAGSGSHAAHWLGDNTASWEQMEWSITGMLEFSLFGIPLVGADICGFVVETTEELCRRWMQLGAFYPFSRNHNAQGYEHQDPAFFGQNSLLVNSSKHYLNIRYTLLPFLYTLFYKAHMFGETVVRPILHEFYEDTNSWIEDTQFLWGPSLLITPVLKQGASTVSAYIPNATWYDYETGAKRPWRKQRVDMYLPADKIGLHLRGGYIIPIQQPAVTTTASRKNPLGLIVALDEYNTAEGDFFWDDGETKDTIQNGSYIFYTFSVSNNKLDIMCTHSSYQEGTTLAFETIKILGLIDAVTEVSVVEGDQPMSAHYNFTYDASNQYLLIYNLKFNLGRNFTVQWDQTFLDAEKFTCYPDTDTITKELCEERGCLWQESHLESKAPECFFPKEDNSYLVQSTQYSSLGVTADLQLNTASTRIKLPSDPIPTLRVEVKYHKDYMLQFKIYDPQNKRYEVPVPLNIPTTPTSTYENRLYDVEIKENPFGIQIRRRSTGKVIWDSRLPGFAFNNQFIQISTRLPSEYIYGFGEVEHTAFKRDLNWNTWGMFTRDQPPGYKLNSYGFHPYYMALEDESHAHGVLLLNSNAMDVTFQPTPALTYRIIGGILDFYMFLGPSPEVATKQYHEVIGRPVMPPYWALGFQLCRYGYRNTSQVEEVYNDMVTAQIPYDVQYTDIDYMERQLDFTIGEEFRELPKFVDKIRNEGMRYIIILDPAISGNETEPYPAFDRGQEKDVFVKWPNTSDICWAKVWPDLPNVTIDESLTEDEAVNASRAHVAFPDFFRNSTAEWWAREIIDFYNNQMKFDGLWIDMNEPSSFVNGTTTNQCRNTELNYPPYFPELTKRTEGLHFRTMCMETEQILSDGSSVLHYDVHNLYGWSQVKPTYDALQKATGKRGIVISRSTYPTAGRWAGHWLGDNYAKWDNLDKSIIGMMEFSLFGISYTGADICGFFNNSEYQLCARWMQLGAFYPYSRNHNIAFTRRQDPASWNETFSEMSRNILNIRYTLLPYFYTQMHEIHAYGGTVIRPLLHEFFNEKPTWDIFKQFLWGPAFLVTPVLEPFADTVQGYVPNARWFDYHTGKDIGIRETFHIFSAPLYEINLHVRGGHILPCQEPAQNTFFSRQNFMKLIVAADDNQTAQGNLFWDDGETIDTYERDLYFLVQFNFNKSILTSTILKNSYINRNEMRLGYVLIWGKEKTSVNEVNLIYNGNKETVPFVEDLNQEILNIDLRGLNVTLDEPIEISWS
Excerpt: (§1) The enzyme complexes saccharase/isomaltase and glucoamylase/maltase that are present on the mucosa in the small intestine in vivo serve to break down disaccharides like maltose and sucrose that reach the small intestine and also to break down maltooligosaccharides to monosaccharides to some degree, and as such these components are absorbed into the blood circulation via the intestinal wall. The enzyme complexes saccharase/isomaltase (SI complex) and glucoamylase/maltase (GM complex) are isolated from a pig intestine by the method of H. […] (solution 2 to solution 6), mixed and incubated at 37° C. The reaction is stopped after 2 h by heating to 95° C. for 15 min. The monosaccharides that have formed and the undegraded saccharides in the relative batches are quantitatively determined by HPAEC.

[2] = system: glucoamylase/maltase enzyme complex (GM complex); assay: Stability with respect to intestinal α-glucosidases: glucoamylase/maltase; type: in vitro ADME, pig; settings: 1% solution, pH 7.0, 0.7 U enzyme complex, 37° C., incubation time 120 min
Excerpt: as §1

[3] = Stability in stomach: hydrolysis rate at pH 2.0, 37° C.; type: physicochemical; settings: 1% solution, 10 mM hydrochloric acid (pH 2.0)
Experimental: The stability of a substance in the gastric passage can be simulated by determining the hydrolysis rate at pH 2.0. Sucrose and 1-kestose are used as controls. […] Samples are taken from the reaction batch after […], 120 and 180 min and are analyzed by basic anion exchange chromatography, HPAEC.

Row | Hydrolysis rate (%), incubation with Saccharase/Isomaltase [1] | Hydrolysis rate (%), incubation with Glucoamylase/Maltase [2] | Hydrolysis rate (%) ([3]; incubation time 0 min) | Hydrolysis rate (%) ([3]; incubation time 60 min) | Hydrolysis rate (%) ([3]; incubation time 120 min) | Hydrolysis rate (%) ([3]; incubation time 180 min) | Compound
1 | 95% | 96% | – | – | – | – | OC[C@H]1O[C@H](O[C@H]2[C@H](O)[C@@H](O)C(O)O[C@@H]2CO)[C@H](O)[C@@H](O)[C@@H]1O (mixture of isomers) [Maltose]
2 | – | – | 0% | 11% | 25% | 36% | OC[C@H]1O[C@@](CO)(OC[C@@]2(O[C@H]3O[C@H](CO)[C@@H](O)[C@H](O)[C@H]3O)O[C@H](CO)[C@@H](O)[C@@H]2O)[C@@H](O)[C@@H]1O [Example 1-Kestose, 1-Kestose]
3 | 98% | – | 0% | 2% | 5% | 8% | OC[C@H]1O[C@@](CO)(O[C@H]2O[C@H](CO)[C@@H](O)[C@H](O)[C@H]2O)[C@@H](O)[C@@H]1O [Sucrose]
